Data as given in patent US5247119A, “Phenylacetonitrilehydroxyalkylaminoalkyl-ortho-substituted aryl compounds as immunosuppressives” (G. D. Searle & Co., priority 1992, dated 1993).

Experiments:
Format in all cases: cell-based, female Balb/c mice
in vitro = conditions: spleen cell leukocytes
Procedure: (§1) Measurement of drug-induced cellular cytotoxicity was determined after 48 hours of cell culture with and without conA and with and without test compound or vehicle control. All cell preparations and assay conditions were identical to those described in Assay A. A fluorescence based assay was used to measure cell viability using the carboxyfluorescein derivative 2'-7'-biscarboxyethyl-5 (6)-carboxyfluorecein (BCECF) as a vital dye [Leeder, J. S., Dosch, H. M., Harper, P. A., Lam, P. and S. P. Spielberg, 1989. Anal. Biochem. 177, 364-372]. The membrane permeant, nonfluorescent ester derivitive, BCECF-AM (100 μl of a 2 ug/ml solution in phosphate buffered saline, pH 7.0, Molecular Probes, Eugene, OR) was added to each cell culture and incubated at 37° C. for 30 min. […] The cells were washed and concentrated on the well membrane under low vacuum, and cell associated fluorescence was measured by front surface fluorometry (485/535 nM) in the Screen Machine (Baxter) using an automated protocol. Probit analysis was used to determine viability as a percentage of relative fluorescence units (RFU) compared to control (cells and medium). The dose of test compound that induced at least 50% cellular toxicity, i.e., a 50% reduction in RFU compared to unstimulated control cells, was recorded.

[1] = system: conA-stimulated T cell proliferation (spleen cells); assay: Assay A: Suppression of Murine Mitogen-Stimulated Proliferation; conditions: conA 1 ug/ml, 3 days culture, MTT readout, n = 2
Source text: Assay A: Suppression of Murine Mitogen-Stimulated Proliferation
It is known that lymphocyte activation can be polyclonally stimulated by plant lectins and other mitogenic substances that induce blast transformation and mitosis. The plant lectin concanavalin A (conA) preferentially induces activation and proliferation of T lymphocytes. Exposure of T cells to conA results in polyclonal T cell activation, and this response can be used to determine the in vitro index of immunomodulatory effects of test compounds on pan-T cell activation. Spleen cells were harvested aseptically from female Balb/c mice, and cells were extruded by compression in phosphate buffered saline (pH 7.0). […] The remaining cells were pelleted, resuspended in medium, filtered through a cotton plug to remove debris, and the leukocytes were then counted. […] Inhibition of conA-stimulated T cell proliferation was measured using a colorimetric indicator of cell growth and proliferation, MTT [3-(4,5-dimethylthiazol-2-yl)-2 diphenyltetrazolium bromide; 100 μl of a 1 mg/ml solution per well, SIGMA] […] Light absorbance was measured at a test wavelength of 570 nm and a reference wavelength of 650 nm using a spectrophotometer. […]

[2] = system: spleen cell leukocytes (cell viability); assay: in vitro; conditions: 48 h
Procedure: as §1

| Structure (SMILES) | CC50 at 48 h (in vitro) [µM] | EC50 ([1]; Mus musculus, T-cell, 72 h) [µM] | CC50 [2] [µM] | EC50 [1] [µM] |
| --- | --- | --- | --- | --- |
| COc1ccc(CCN(C)CC(O)CC(C#N)(c2ccc(OC)c(OC)c2)C(C)C)cc1OC (racemic) [Example 1-A, α-[3-[[2-(3,4-dimethoxyphenyl)ethyl]methylamino]-2-hydroxypropyl]-3,4-dimethoxy-α-(1-methylethyl)benzeneacetonitrile] | 60 | 12.9 ± 5.75 |  |  |
| COc1ccc(CCN(C)CC(O)CC(C#N)(c2ccc(OC)c(OC)c2)C(C)C)cc1OC (racemic) [Example 1-B, α-[3-[[2-(3,4-dimethoxyphenyl)ethyl]methylamino]-2-hydroxypropyl]-3,4-dimethoxy-α-(1-methylethyl)benzeneacetonitrile] |  |  | 60 | 17.9 ± 8.16 |
